Reference: EP0564466B1, “LHRH-ANTAGONISTS” (ASTA Medica Aktiengesellschaft, priority 1990, dated 1992)
Non-standard residues stand in square brackets, D forms with d. Residues, ends and D or L forms follow the SMILES beside them. dPhe(4-Cl) = N[C@H](Cc1ccc(Cl)cc1)C(=O)O; d2Nal = N[C@H](Cc1ccc2ccccc2c1)C(=O)O; d3Pal = N[C@H](Cc1cccnc1)C(=O)O

Assays:
[1] = tested on: rat ovulation; assay: Corbin's rat antiovulation method (antiovulatory activity, AOA); type: in vivo, SD rats; details: for % AOA/µg 0.25: 0.25 µg; for % AOA/µg 0.25 / % AOA/µg 0.5 / % AOA/µg 1.0: in saline, given at noon of proestrus, female SD rats; for % AOA/µg 0.5: 0.5 µg; for % AOA/µg 1.0: 1.0 µg
Experimental: Corbin's rat antiovulatlon method is used. The healthy, adult, female SD rats (BW 200-250 g) are used in this experiment. All animals are maintained at 22-24 °C and on 14 h/10 h (light/dark) schedule. They are given standard food, and water ad libitum. The rats showing at least two consecutive 4-day estrous cycles in vaginal smear examination can be used in this experiment. […] The rats are sacrificed next day, their oviduct of two sides are examed under a dissecting microscope to determine the ovum number. The rats were divided into several groups according to the dosing, each group consists of about 10 rats, and the control group in which the rats are given equal amount of saline consists of 9-10 rats. The antiovulatory activity (AOA) is shown in the following equation: AOA=(number of unovulated rats)/(Total number of treated rats)X 100 % [formula]

[2] = tested on: rat mast cell; assay: Histamine releasing test (HRT) in vitro; type: cell-based, SD rats; details: in vitro histamine release from rat peritoneal mast cells, 15 min at 37 °C
Experimental: The healthy, adult, male SD rats (BW 200-250 g) housing in the above same conditions are used in this experiment. After anesthetized by CO2 the peritoneal cavity is washed with 50 ml of PIPES AC medium containing 20 units of heparin. Following centrifugation at 200xg for 8 min at 4 °C, cells are washed again and finally resuspended to a concentration of 8 to 24x10^5 total leucocyted/ml in PIPAS AC. This suspension contains approximately 5-10 % mast cells. Washed cells are used immediately after collection and are prewarmed for 5 min at 37 °C prior to pipetting 0,3 ml aliquots into polystyrene tubes containing 0,3 ml of diluted peptide. The mixtures are incubated for 15 min at 37 °C and the reaction stopped by centrifugation at 400 xg for 15 min at 4 °C. The supernatans are assayed for histamine content by manual fluorometric assay method after successively extraction with n-butanol and n-heptane. The histamine content can be obtained from the histamine standard curve (see below). The percentage of histamine release can be calculted from the following equation: Histamine release(%)=(E-B)/(C-B)X 100 % [formula] where E is the fluorometric reading of experimental sample, B is the fluorometric reading of samples with cells and buffer only, and C ist the fluorometric reading of "complete" (cells treated with HCIO4).
The standard curve can be obtained by plotting the OD values on a fluorometer at 350 nm/450 nm (activation/fluorescent) against the concentrations of serially diluted solution of accurately weighted histamine hydrochloride. The relative parameter r of the histamine standard curve can be 0.9998, and the lowest detectable concentration of histamine is 0,5 ng/ml.
The ED50 value of peptide can be gotten from the dose response curves obtained by plotting the histamine release versus the peptide concentration on semilogarithmic paper.
All peptide samples should be tested with mast cells from a minimum of 3 different rats.

[3] = tested on: rat mast cell; details: neuropeptide substance P; cited from earlier work

Work on `CC(=O)N[C@H](Cc1ccc2ccccc2c1)C(=O)N[C@H](Cc1ccc(Cl)cc1)C(=O)N[C@H](Cc1cccnc1)C(=O)N[C@@H](CO)C(=O)N[C@@H](CCCNC(=N)N)C(=O)N[C@H](Cc1cccnc1)C(=O)N[C@@H](CC(C)C)C(=O)N[C@@H](CCCNC(=N)N)C(=O)N1CCC[C@H]1C(=O)N[C@H](C)C(N)=O` [compound 1, [NAc-D2Nal^1, DpClphe^2, D3Pal^3, Ser^4, Arg^5, D3Pal^6, Leu^7, Arg^8, Pro^9, DAla^10]NH2] (Ac-[d2Nal][dPhe(4-Cl)][d3Pal]SR[d3Pal]LRP[dA]-NH2) yielded an AOA ([1]; 0,5 µg, corn oil) of 100%, an AOA ([1]; 0,12 µg, corn oil) of 60% and an AOA ([1]; 0,25 µg, corn oil) of 85%. The “% AOA/µg 0.25” value [1] was 50%, the “% AOA/µg 0.5” value [1] was 75% and the “% AOA/µg 1.0” value [1] was 100%. For the same molecule, the “ED50 for AOA” value ([1]; corn oil) was ≤ 0,125 µg, the “HRA (µg/ml) ED50 ± SEM” value [2] was 3.5 ± 0.38 µg/mL and the “HRA (µg/ml) ED50 ± SEM” value ([2]; listed as IV) was 3,5 µg/ml.
With `CC(=O)N[C@H](Cc1ccc2ccccc2c1)C(=O)N[C@H](Cc1ccc(Cl)cc1)C(=O)N[C@H](Cc1ccccc1)C(=O)N[C@@H](CO)C(=O)N[C@@H](CCCNC(=N)N)C(=O)N[C@H](Cc1cccnc1)C(=O)N[C@@H](CC(C)C)C(=O)N[C@@H](CCCNC(=N)N)C(=O)N1CCC[C@H]1C(=O)N[C@H](C)C(N)=O` [compound 2, [NAc-D2Nal^1, DpClPhe^2, DPhe^3, Ser^4, Arg^5, D3Pal^6, Leu^7, Arg^8, Pro^9, DAla^10]NH2] (Ac-[d2Nal][dPhe(4-Cl)][dF]SR[d3Pal]LRP[dA]-NH2) the “% AOA/µg 0.25” value [1] was 29%, the “% AOA/µg 0.5” value [1] was 60% and the “% AOA/µg 1.0” value [1] was 100%. For the same molecule, the “HRA (µg/ml) ED50 ± SEM” value [2] was 7.4 ± 0.98 µg/mL.
In the case of “[Arg^1, Pro^2, Lys^3, Pro^4, Gln^5, Gln^6 Phe^7, Phe^8, Gly^9, Leu^10, Met^11]NH2 [substance P]”, the “ED50 for HRA” value [3] is given as 5 to 15 µM.
For “[NAc-D2Nal^1, DpClPhe^2, D3Pal^3 Ser4, Tyr5, D3Pal6, Leu7, Arg8, Pro9, DAla10]NH2 [III]”, the AOA ([1]; 1 µg, corn oil) was 83%, the AOA ([1]; 3 µg, corn oil) was 100% and the “HRA (µg/ml) ED50 ± SEM” value [2] was 9.8 µg/mL.
Molecule “[NAc-D2Nal^1, DpClPhe^2, D3Pal^3, Ser^4, Tyr^5, DArg^6, Leu^7, Arg^8, Pro^9, DAla^10]NH2 [II, reference compound]” has an AOA ([1]; 0,5 µg, corn oil) of 100% and an AOA ([1]; 0,25 µg, corn oil) of 57%.
With “[NAc-D2Nal^1, DpClPhe^2, DPhe^3, Ser^4, Tyr^5, D3Pal^6, Leu^7, Arg^8, Pro^9, DAla^10]NH2 [V']” the “% AOA/µg 1.0” value [1] was 100% and the “HRA (µg/ml) ED50 ± SEM” value [2] was 7,4 µg/ml.
For “[NAc-D2Nal^1, DpClphe^2, D3Pal^3, Ser^4, Mop^5, D3Pal^6, Leu^7, Arg^8, Pro^9, DAla^10]-NH2 [compound 13]”, the “% AOA/µg 0.5” value [1] was 25%, the “% AOA/µg 1.0” value [1] was 100% and the “HRA (µg/ml) ED50 ± SEM” value [2] was 14.7 ± 2.70 µg/mL. The “HRA (µg/ml) ED50 ± SEM” value ([2]; listed as VII) was 14,7 µg/ml.
